Test results from ChEMBL document CHEMBL5154654, “Design, synthesis and biological evaluation of 7-((7H-pyrrolo[2,3-d]pyrimidin-4-yl)oxy)-2,3-dihydro-1H-inden-1-one derivatives as potent FAK inhibitors for the treatment of ovarian cancer” (Eur J Med Chem, 2022).
In brackets after ≈: the same amount, converted by molar mass. Activity calls are given as the source filed them. The rule behind the calls is not given here.

Assays:
Focal adhesion kinase 1 [1] = molecular target: T1, Focal adhesion kinase 1 (Homo sapiens, UniProt Q05397); assay: Inhibition of FAK (unknown origin) using Fluorescein-Poly GAT as substrate incubated for 30 mins and measured after 60 mins by Lanthascreen assay
Target sequence in this assay (Q05397 whole entry): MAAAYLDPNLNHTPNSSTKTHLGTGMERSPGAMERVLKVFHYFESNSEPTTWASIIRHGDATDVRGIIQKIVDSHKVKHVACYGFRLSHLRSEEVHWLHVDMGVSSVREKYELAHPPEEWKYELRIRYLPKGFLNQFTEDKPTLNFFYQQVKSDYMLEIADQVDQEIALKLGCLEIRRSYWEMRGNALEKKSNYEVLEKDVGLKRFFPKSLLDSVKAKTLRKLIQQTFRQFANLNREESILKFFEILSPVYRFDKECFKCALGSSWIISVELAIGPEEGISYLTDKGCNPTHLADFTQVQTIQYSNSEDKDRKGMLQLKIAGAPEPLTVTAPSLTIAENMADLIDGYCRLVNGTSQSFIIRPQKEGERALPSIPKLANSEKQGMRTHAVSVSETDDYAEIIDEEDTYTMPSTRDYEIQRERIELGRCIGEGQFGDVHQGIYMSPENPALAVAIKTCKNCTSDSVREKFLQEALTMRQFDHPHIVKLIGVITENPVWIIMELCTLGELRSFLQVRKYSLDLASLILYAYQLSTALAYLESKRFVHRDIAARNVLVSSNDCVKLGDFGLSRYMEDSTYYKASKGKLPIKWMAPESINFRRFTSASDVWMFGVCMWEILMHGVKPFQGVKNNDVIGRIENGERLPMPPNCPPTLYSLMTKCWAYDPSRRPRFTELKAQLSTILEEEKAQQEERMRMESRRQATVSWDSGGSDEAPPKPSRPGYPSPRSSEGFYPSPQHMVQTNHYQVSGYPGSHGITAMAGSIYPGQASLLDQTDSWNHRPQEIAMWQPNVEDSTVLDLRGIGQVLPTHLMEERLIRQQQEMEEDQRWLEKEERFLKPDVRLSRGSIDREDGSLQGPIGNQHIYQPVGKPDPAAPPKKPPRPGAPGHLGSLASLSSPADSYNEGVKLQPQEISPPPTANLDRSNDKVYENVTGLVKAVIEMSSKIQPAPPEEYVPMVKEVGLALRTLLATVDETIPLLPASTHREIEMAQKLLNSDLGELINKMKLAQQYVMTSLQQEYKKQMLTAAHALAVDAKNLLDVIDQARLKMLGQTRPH

[2] = Metabolic stability in human liver microsomes assessed as parent compound remaining incubated for 120 mins in presence of NADPH by LC-MS/MS analysis; type: ADME, Microsome; settings: read-out: Stability
[3] = Metabolic stability in human liver microsomes assessed as half-life incubated for 120 mins in presence of NADPH by LC-MS/MS analysis; type: ADME, Microsome
[4] = Metabolic stability in human liver microsomes assessed as intrinsic clearance incubated for 120 mins in presence of NADPH by LC-MS/MS analysis; type: ADME, Microsome; settings: read-out: CLH
[5] = Aqueous solubility of compound; type: physicochemical; settings: aqueous (not further specified)
[6] = molecular target: Leucine-rich repeat serine/threonine-protein kinase 2 (Homo sapiens) (UniProt Q5S007); assay: Inhibition of LRRK2 (unknown origin) at 1 uM incubated for 40 mins in presence of Mg/ATP mix relative to control
Sequence of Leucine-rich repeat serine/threonine-protein kinase 2 (Homo sapiens) (Q5S007 whole entry): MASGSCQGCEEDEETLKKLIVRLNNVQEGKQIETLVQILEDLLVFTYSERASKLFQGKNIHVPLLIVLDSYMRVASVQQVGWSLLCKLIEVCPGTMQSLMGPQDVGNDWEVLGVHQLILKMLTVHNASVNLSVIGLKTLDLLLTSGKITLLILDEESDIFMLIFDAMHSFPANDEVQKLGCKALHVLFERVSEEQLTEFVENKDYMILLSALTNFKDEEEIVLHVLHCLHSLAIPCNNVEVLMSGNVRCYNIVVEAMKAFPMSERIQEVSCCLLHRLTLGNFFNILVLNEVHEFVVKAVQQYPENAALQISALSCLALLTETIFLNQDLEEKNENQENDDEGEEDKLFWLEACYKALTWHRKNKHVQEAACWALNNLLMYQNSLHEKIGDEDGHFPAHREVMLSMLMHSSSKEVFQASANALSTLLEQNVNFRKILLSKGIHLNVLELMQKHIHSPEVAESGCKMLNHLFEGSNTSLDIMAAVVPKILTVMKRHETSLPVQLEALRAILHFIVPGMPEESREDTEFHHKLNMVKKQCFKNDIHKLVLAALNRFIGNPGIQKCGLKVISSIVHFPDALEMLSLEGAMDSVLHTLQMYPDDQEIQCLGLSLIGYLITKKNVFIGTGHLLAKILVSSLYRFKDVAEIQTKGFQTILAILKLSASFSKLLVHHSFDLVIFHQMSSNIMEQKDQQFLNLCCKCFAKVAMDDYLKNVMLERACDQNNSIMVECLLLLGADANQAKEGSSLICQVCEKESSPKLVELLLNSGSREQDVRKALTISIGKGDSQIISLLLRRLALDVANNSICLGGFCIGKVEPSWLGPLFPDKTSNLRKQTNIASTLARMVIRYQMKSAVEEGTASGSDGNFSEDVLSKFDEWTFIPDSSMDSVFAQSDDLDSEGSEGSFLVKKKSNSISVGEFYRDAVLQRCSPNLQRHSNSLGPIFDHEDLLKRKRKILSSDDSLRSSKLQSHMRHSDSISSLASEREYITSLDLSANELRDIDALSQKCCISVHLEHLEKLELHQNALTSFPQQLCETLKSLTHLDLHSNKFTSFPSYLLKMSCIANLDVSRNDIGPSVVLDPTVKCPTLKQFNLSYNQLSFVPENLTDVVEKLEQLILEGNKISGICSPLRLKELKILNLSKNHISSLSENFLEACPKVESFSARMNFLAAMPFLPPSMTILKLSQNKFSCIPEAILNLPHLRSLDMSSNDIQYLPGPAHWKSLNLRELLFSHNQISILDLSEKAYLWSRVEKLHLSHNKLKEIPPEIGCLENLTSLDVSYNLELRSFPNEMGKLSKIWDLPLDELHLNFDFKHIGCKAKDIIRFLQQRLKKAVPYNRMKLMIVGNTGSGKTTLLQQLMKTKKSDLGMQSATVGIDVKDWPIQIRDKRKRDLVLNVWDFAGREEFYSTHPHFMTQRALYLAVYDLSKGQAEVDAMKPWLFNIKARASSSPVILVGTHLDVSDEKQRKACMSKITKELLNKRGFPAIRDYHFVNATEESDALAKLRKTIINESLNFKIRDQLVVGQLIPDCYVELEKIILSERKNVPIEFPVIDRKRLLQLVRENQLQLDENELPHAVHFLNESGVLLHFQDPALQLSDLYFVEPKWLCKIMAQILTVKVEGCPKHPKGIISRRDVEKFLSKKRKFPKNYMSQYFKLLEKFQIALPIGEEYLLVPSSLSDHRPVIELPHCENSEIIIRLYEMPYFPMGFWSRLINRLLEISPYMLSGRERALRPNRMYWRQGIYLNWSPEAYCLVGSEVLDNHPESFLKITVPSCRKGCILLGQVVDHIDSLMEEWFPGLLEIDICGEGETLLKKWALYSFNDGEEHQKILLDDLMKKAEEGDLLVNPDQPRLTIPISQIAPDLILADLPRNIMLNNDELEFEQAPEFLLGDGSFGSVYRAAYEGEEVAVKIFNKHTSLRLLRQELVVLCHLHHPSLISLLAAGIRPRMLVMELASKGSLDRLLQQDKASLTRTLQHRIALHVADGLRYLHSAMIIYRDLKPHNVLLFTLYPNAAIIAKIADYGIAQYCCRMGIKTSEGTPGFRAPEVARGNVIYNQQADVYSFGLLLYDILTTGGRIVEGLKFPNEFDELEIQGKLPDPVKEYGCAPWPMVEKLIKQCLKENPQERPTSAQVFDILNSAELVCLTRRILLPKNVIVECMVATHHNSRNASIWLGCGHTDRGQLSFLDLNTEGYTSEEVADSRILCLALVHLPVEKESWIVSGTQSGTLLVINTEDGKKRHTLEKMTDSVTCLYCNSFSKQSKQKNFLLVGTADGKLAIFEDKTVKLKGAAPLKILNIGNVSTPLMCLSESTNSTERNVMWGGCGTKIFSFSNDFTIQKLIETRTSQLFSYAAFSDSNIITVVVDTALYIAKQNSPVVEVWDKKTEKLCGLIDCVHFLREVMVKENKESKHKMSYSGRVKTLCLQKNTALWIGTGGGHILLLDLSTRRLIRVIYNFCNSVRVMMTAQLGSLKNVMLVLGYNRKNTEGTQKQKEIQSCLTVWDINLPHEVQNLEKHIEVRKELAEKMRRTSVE

[7] = molecular target: Dual specificity protein kinase CLK4 (Homo sapiens) (UniProt Q9HAZ1); assay: Inhibition of CLK4 (unknown origin) at 1 uM incubated for 40 mins in presence of Mg/ATP mix relative to control
[8] = molecular target: Tyrosine-protein kinase Fes/Fps (Homo sapiens) (UniProt P07332); assay: Inhibition of Fes (unknown origin) at 1 uM incubated for 40 mins in presence of Mg/ATP mix relative to control
[9] = molecular target: Dual specificity protein kinase CLK1 (Homo sapiens) (UniProt P49759); assay: Inhibition of CLK1 (unknown origin) at 1 uM incubated for 40 mins in presence of Mg/ATP mix relative to control
[10] = molecular target: Serine/threonine-protein kinase 33 (Homo sapiens) (UniProt Q9BYT3); assay: Inhibition of STK33 (unknown origin) at 1 uM incubated for 40 mins in presence of Mg/ATP mix relative to control
[11] = molecular target: ALK tyrosine kinase receptor (Homo sapiens) (UniProt Q9UM73); assay: Inhibition of ALK (unknown origin) at 1 uM incubated for 40 mins in presence of Mg/ATP mix relative to control
Sequence of ALK tyrosine kinase receptor (Homo sapiens) (Q9UM73 19-1620 limits assumed): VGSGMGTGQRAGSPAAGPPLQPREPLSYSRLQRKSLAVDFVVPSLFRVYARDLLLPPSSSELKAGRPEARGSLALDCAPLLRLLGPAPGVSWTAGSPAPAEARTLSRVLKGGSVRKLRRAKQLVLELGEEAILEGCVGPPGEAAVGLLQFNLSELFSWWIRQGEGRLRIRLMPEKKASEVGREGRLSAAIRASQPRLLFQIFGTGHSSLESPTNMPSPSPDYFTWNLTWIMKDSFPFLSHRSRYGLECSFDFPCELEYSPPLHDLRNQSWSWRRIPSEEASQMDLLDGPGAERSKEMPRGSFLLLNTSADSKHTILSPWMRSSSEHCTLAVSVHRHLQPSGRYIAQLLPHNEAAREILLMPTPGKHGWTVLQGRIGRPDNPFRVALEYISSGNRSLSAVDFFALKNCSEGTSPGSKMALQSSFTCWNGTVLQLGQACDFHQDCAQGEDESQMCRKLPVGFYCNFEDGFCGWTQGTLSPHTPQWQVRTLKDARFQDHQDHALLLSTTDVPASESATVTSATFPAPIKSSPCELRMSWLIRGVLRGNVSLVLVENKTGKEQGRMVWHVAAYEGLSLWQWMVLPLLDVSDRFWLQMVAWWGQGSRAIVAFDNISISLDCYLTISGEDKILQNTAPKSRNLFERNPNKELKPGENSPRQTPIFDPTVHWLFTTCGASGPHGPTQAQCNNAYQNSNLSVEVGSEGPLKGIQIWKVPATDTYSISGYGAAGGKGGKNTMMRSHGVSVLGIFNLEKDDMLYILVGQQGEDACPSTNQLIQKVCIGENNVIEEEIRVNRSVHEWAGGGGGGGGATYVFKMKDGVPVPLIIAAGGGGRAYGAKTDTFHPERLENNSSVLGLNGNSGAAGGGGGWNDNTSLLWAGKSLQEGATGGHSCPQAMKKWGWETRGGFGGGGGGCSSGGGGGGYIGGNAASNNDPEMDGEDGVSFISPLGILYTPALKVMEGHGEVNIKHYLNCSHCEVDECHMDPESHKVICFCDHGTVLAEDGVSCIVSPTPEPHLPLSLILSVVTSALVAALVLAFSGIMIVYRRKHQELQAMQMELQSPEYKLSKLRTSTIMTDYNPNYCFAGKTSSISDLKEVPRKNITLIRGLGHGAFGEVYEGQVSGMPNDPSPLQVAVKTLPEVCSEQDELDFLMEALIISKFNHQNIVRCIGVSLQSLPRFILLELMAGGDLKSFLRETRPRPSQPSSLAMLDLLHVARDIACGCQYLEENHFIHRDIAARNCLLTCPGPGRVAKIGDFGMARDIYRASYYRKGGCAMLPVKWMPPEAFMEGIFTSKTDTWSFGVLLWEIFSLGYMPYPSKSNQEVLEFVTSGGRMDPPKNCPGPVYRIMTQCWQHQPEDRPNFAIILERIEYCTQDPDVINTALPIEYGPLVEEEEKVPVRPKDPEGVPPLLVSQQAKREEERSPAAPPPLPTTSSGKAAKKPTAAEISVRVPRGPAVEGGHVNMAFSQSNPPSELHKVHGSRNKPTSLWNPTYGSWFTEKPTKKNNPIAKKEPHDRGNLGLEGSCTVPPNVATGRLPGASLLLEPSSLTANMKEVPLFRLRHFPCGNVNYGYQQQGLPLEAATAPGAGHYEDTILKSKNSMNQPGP

PA-1 [12] = assay: Inhibition of migration of human PA-1 cells at 2 uM measured after 24 hrs by Transwell assay; type: functional, cell-based
PA-1 [13] = assay: Inhibition of invasion of human PA-1 cells at 2 uM measured after 24 hrs by Transwell assay; type: functional, cell-based
PA-1 [14] = assay: Down-regulation of MMP-2 expression in human PA-1 cells at 2 uM measured after 0.5 to 6 hrs; type: functional, cell-based; settings: time 0.5-6 hrs
PA-1 [15] = assay: Down-regulation of MMP-9 expression in human PA-1 cells at 2 uM measured after 0.5 to 6 hrs; type: functional, cell-based; settings: time 0.5-6 hrs
[16] = Half-life in Sprague-Dawley rat at 20 mg/kg, po; type: ADME, organism-based; settings: in vivo
[17] = Tmax in Sprague-Dawley rat at 20 mg/kg, po; type: ADME, organism-based; settings: in vivo
[18] = Cmax in Sprague-Dawley rat at 20 mg/kg, po; type: ADME, organism-based; set-up: dose 20 mg/kg, route po; settings: in vivo
[19] = AUClast in Sprague-Dawley rat at 20 mg/kg, po; type: ADME, organism-based; set-up: time 0 - last, dose 20 mg/kg, route po; settings: in vivo
[20] = AUC (total) in Sprague-Dawley rat at 20 mg/kg, po; type: ADME, organism-based; set-up: dose 20 mg/kg, route po; settings: in vivo
PA-1 [21] = assay: Antitumor activity against human PA-1 cells xenografted in female BALB/c nude mouse assessed tumor growth inhibition at 60 mg/kg, po administered once daily for 21 days; type: functional; settings: PA-1, 504 h, time 21 day, read-out: TGI
[22] = Toxicity in female BALB/c nude mouse xenografted with human PA-1 cells assessed as effect on body weight at 60 mg/kg, po administered once daily for 21 days; type: organism-based; settings: in vivo, 504 h, time 21 day
[23] = Toxicity in female BALB/c nude mouse xenografted with human PA-1 cells assessed as heart damage at 60 mg/kg, po administered once daily for 21 days; type: organism-based; settings: in vivo, 504 h, time 21 day
[24] = Toxicity in female BALB/c nude mouse xenografted with human PA-1 cells assessed as liver damage at 60 mg/kg, po administered once daily for 21 days; type: organism-based; settings: in vivo, 504 h, time 21 day
[25] = Toxicity in female BALB/c nude mouse xenografted with human PA-1 cells assessed as lung damage at 60 mg/kg, po administered once daily for 21 days; type: organism-based; settings: in vivo, 504 h, time 21 day
[26] = Toxicity in female BALB/c nude mouse xenografted with human PA-1 cells assessed as spleen damage at 60 mg/kg, po administered once daily for 21 days; type: organism-based; settings: in vivo, 504 h, time 21 day
[27] = Toxicity in female BALB/c nude mouse xenografted with human PA-1 cells assessed as kidney damage at 60 mg/kg, po administered once daily for 21 days; type: organism-based; settings: in vivo, 504 h, time 21 day
ES-2 = assay: Antimetastatic activity against human ES2 cells xenografted in mouse assessed as decrease in the number of peritoneal nodules at 60 mg/kg, po administered daily for 12 days; type: functional, organism-based; settings: time 12.0 day
Focal adhesion kinase 1 [28] = molecular target: T1, Focal adhesion kinase 1; settings: PA-1, dose 10.0 nM
Description: Inhibition of FAK in human PA-1 cells assessed as suppression of FAK autophosphorylation at 10 nM and measured by Western blotting analysis

SMILES: CN1CCN(c2ccc(Nc3nc(Oc4cccc5c4C(=O)CC5)c4cc[nH]c4n3)c(C(F)(F)F)c2)CC1
- IC50 (Focal adhesion kinase 1 [1]): 99.8 nM

SMILES: O=C1CCc2cccc(Oc3nc(Nc4ccc(N5CCOCC5)cc4)nc4sccc34)c21
- IC50 (Focal adhesion kinase 1 [1]): > 1000 nM

SMILES: Cc1cc(Nc2nc(Oc3cccc4c3C(=O)CC4)c3cc[nH]c3n2)ccc1N1CCN(CC2CC2)CC1
- IC50 (Focal adhesion kinase 1 [1]): 4.2 nM
- remaining at 2 h [2]: 15.3%
- half-life [3]: < 0.5 h
- CLint scaled [4]: > 29 mL/min/kg

SMILES: Cc1ccc(Oc2nc(Nc3ccc(N4CCC(N5CCN(C)CC5)CC4)cc3)nc3[nH]ccc23)c2c1CCC2=O
- IC50 (Focal adhesion kinase 1 [1]): 2.47 nM
- remaining at 2 h [2]: 41.5%
- half-life [3]: 1.57 h
- CLint scaled [4]: 93 mL/min/kg
- solubility [5]: 38 µg/mL (≈ 68.9 µM)

SMILES: CN1CCN(c2ccc(Nc3nc(Oc4cccc5c4C(=O)CC5)c4sccc4n3)cc2)CC1
- IC50 (Focal adhesion kinase 1 [1]): 110 nM

SMILES: CN1CCN(c2ccc(Nc3nc(Oc4cccc5c4C(=O)CC5)c4[nH]ccc4n3)cc2)CC1
- IC50 (Focal adhesion kinase 1 [1]): > 1000 nM

SMILES: CN1CCN(c2ccc(Nc3nc(Oc4cccc5c4C(=O)CC5)c4cc[nH]c4n3)cc2)CC1
- IC50 (Focal adhesion kinase 1 [1]): 10.5 nM

SMILES: COc1cc(N2CCN(C)CC2)ccc1Nc1nc(-n2cnc3ccccc32)c2cc[nH]c2n1
- IC50 (Focal adhesion kinase 1 [1]): 36.8 nM

SMILES: COc1cc(N2CCN(C)CC2)ccc1Nc1nc(Oc2cccc3c2C(=O)CC3)c2ccccc2n1
- IC50 (Focal adhesion kinase 1 [1]): 231 nM

SMILES: CN1CCN(c2ccc(Nc3nc(Oc4cccc5c4C(=O)CC5)c4ccsc4n3)cc2)CC1
- IC50 (Focal adhesion kinase 1 [1]): > 1000 nM

SMILES: CN1CCN(c2ccc(Nc3nc(Oc4cccc5c4C(=O)CC5)c4cc[nH]c4n3)cc2F)CC1
- IC50 (Focal adhesion kinase 1 [1]): 5.64 nM

SMILES: COc1cc(C(=O)NC2CCNCC2)ccc1Nc1nc(Oc2cccc3c2C(=O)CC3)c2cc[nH]c2n1
- IC50 (Focal adhesion kinase 1 [1]): 1.89 nM
- remaining at 2 h [2]: 48.6%
- half-life [3]: 1.88 h
- CLint scaled [4]: 7.7 mL/min/kg
- solubility [5]: 456 µg/mL (≈ 890 µM)
- inhibition [6]: 100%
- inhibition [7]: 97%
- inhibition [8]: 96%
- inhibition [9]: 92%
- inhibition [10]: 92%
- inhibition [11]: 87%
- inhibition (PA-1 [12]): Active
- inhibition (PA-1 [13]): Active
- Activity (PA-1 [14]): Active
- Activity (PA-1 [15]): Active
- half-life [16]: 4.08 h
- Tmax [17]: 0.28 h
- Cmax [18]: 21.7 ng/mL
- AUC(0-t) [19]: 59.6 ng·h/mL
- AUC [20]: 78.8 ng·h/mL
- inhibition in vivo at 60 mg/kg (PA-1 [21]): 72.5%
- Activity [22]: Non-Toxic
- Activity [23]: Non-Toxic
- Activity [24]: Non-Toxic
- Activity [25]: Non-Toxic
- Activity [26]: Non-Toxic
- Activity [27]: Non-Toxic
- Activity (ES-2): Active
- inhibition (Focal adhesion kinase 1 [28]): Active

SMILES: CN1CCN(C2CCN(c3ccc(Nc4nc(Oc5cccc6c5C(=O)CC6)c5cc[nH]c5n4)cc3)CC2)CC1
- IC50 (Focal adhesion kinase 1 [1]): 2.91 nM
- remaining at 2 h [2]: 42.2%
- half-life [3]: 1.55 h
- CLint scaled [4]: 93 mL/min/kg
- solubility [5]: 39.4 µg/mL (≈ 73.3 µM)

SMILES: Cc1cc(Nc2nc(Oc3cccc4c3C(=O)CC4)c3cc[nH]c3n2)ccc1N1CCN(C2COC2)CC1
- IC50 (Focal adhesion kinase 1 [1]): 6.32 nM

SMILES: COc1cc(N2CCC(N3CCN(C)CC3)CC2)ccc1Nc1nc(Oc2cccc3c2C(=O)CC3)c2ccsc2n1
- IC50 (Focal adhesion kinase 1 [1]): 945 nM

SMILES: COc1cc(N2CCC(N3CCN(C)CC3)CC2)ccc1Nc1nc(Oc2cccc3c2C(=O)CC3)c2[nH]ccc2n1
- IC50 (Focal adhesion kinase 1 [1]): > 1000 nM

SMILES: CN1CCN(c2ccc(Nc3nc(Oc4cccc5c4C(=O)CC5)c4cc[nH]c4n3)cc2Cl)CC1
- IC50 (Focal adhesion kinase 1 [1]): 4.8 nM
- remaining at 2 h [2]: 15.7%
- half-life [3]: 0.775 h
- CLint scaled [4]: 18.7 mL/min/kg

SMILES: Cc1cc(N2CCN(C)CC2)ccc1Nc1nc(Oc2cccc3c2C(=O)CC3)c2cc[nH]c2n1
- IC50 (Focal adhesion kinase 1 [1]): 7.13 nM

SMILES: COc1cc(C(=O)NC2CC2)ccc1Nc1nc(Oc2cccc3c2C(=O)CC3)c2cc[nH]c2n1
- IC50 (Focal adhesion kinase 1 [1]): 10.9 nM

SMILES: COc1cc(N2CCN(C)CC2)ccc1Nc1nc(Oc2cccc3c2C(=O)CC3)c2[nH]ccc2n1
- IC50 (Focal adhesion kinase 1 [1]): > 1000 nM

SMILES: Cc1cc(Nc2nc(Oc3cccc4c3C(=O)CC4)c3cc[nH]c3n2)ccc1OCCN(C)C
- IC50 (Focal adhesion kinase 1 [1]): 3.93 nM
- remaining at 2 h [2]: 19.8%
- half-life [3]: 0.867 h
- CLint scaled [4]: 16.7 mL/min/kg
- solubility [5]: 9.3 µg/mL (≈ 20.3 µM)

SMILES: COc1cc(N2CCC(N3CCN(C)CC3)CC2)ccc1Nc1nc(Oc2cccc3c2C(=O)CC3)c2ccccc2n1
- IC50 (Focal adhesion kinase 1 [1]): 246 nM

SMILES: COc1cc(N2C[C@@H](C)O[C@@H](C)C2)ccc1Nc1nc(Oc2cccc3c2C(=O)CC3)c2cc[nH]c2n1
- IC50 (Focal adhesion kinase 1 [1]): 11.9 nM

SMILES: Cc1cc(Nc2nc(Oc3cccc4c3C(=O)CC4)c3cc[nH]c3n2)n(C(C)C)n1
- IC50 (Focal adhesion kinase 1 [1]): 206 nM
